From patent US20090088461A1, “Methods of Treating or Preventing Cardiac Disease Associated With a High Fat Diet” (Synvista Therapeutics, Inc., priority 2007, published 2009)
“Also recorded” adds a separate entry of the source.

Assays:
Type in all cases: in vivo
[1] = test system: AGEs (CML), S100 A8/A9, RAGE, AGE-R1, AGE-R3; experiment: Accumulation of RAGE ligands and AGE receptor expression in HF-fed mice; conditions: for Gene expression RAGE: Wild-type mice, HF diet, real time RT-PCR, control = 1
Description: Adult (8-week-old) male […] mice (Precinct Animal Centre, Melbourne, Australia) and RAGE knockout (KO) mice^17 ([…] al., J Clin Invest. 113:1641-50, 2004) were housed in a temperature-controlled room on a 12-h light-dark cycle. Mice were placed on either a standard diet (AIN-93G; Specialty feeds, Perth AUS; n=10/group) or a high fat (HF) diet formulated to mimic a “Western fast food diet”, (SF05-031, Specialty Feeds; n=10). Both diets contained the same vitamin and calorie content. […] Animals receiving a HF diet were further randomized to receive alagebrium chloride at a dose of 1 mg/kg/day delivered by oral gavage. All groups were followed for 16 weeks. […] Cardiovasc Diabetol. 5:6, 2006) was also assessed by commercial ELISA.

[2] = test system: myocardial fibrosis (collagen I, collagen IV); experiment: Assessment of myocardial fibrosis in HF-fed mice; conditions: for collagen deposition / collagen accumulation associated with high fat feeding: HF-fed mice, histology (FIG. 1); for Gene expression Collagen I / Gene expression Collagen IV: HF diet, real time RT-PCR
Description: Adult (8-week-old) male […] mice (Precinct Animal Centre, Melbourne, Australia) and RAGE knockout (KO) mice^17 ([…] al., J Clin Invest. 113:1641-50, 2004) were housed in a temperature-controlled room on a 12-h light-dark cycle. Mice were placed on either a standard diet (AIN-93G; Specialty feeds, Perth AUS; n=10/group) or a high fat (HF) diet formulated to mimic a “Western fast food diet”, (SF05-031, Specialty Feeds; n=10). Both diets contained the same vitamin and calorie content. […] Animals receiving a HF diet were further randomized to receive alagebrium chloride at a dose of 1 mg/kg/day delivered by oral gavage. All groups were followed for 16 weeks. Previous studies have shown that obesity is associated with an increase in intramyocardial fibrosis. Gene expression of markers of fibrosis, including collagens and fibronectin were assessed by real-time quantitative RT-PCR, as detailed above. Perivascular collagen deposition was assessed by Van Giesen's Stain and interstitial fibrosis was assessed by staining with Picrosirus red staining of organized collagen. […] Paraffin-fixed cardiac sections were also stained for collagen IV by immunohistochemistry, as previously described^12 (Candido et al., Circ Res. 92:785-92, 2003).

[3] = Physiological and biochemical parameters in HF-fed mice; conditions: HF diet, 1 mg/kg/day oral gavage; for Weight gain (% baseline): 16 weeks
Description: Adult (8-week-old) male […] mice (Precinct Animal Centre, Melbourne, Australia) and RAGE knockout (KO) mice^17 ([…] al., J Clin Invest. 113:1641-50, 2004) were housed in a temperature-controlled room on a 12-h light-dark cycle. Mice were placed on either a standard diet (AIN-93G; Specialty feeds, Perth AUS; n=10/group) or a high fat (HF) diet formulated to mimic a “Western fast food diet”, (SF05-031, Specialty Feeds; n=10). Both diets contained the same vitamin and calorie content. […] Animals receiving a HF diet were further randomized to receive alagebrium chloride at a dose of 1 mg/kg/day delivered by oral gavage. All groups were followed for 16 weeks. The following parameters were serially measured in all groups: body weight; blood glucose, measured using a glucometer; systolic blood pressure, measured by tail-cuff plethysmography in conscious, warmed mice.

[4] = test system: myocardial inflammation (IL-6, TNF α, ICAM-1, MCP-1, NF-κBp65); experiment: Assessment of myocardial inflammation in HF-fed mice; conditions: HF diet, real time RT-PCR
Description: Adult (8-week-old) male […] mice (Precinct Animal Centre, Melbourne, Australia) and RAGE knockout (KO) mice^17 ([…] al., J Clin Invest. 113:1641-50, 2004) were housed in a temperature-controlled room on a 12-h light-dark cycle. Mice were placed on either a standard diet (AIN-93G; Specialty feeds, Perth AUS; n=10/group) or a high fat (HF) diet formulated to mimic a “Western fast food diet”, (SF05-031, Specialty Feeds; n=10). Both diets contained the same vitamin and calorie content. […] Animals receiving a HF diet were further randomized to receive alagebrium chloride at a dose of 1 mg/kg/day delivered by oral gavage. All groups were followed for 16 weeks. The expression of inflammatory cytokines, tumor necrosis factor (TNFα), interleukin-6 (IL-6), along with macrophage infiltration, is augmented following cardiac stress. The gene expression of IL-6, TNF α, the adhesion molecule, ICAM-1 and the chemokine, […] (MCP-1) in left ventricular homogenates were assessed by real-time quantitative RT-PCR. The myocardial expression of IL-6 protein was further quantitated by ELISA.

[5] = Wild-type mice, listed as AL, 1 mg/kg/day

Cc1sc[n+](CC(=O)c2ccccc2)c1C.[Cl-] [alagebrium chloride, 3-(2-phenyl-2-oxoethyl)-4,5-dimethylthiazolium chloride]
increase in S100 A8/A9 following HF feeding ([1]; HF-fed mice, ELISA (FIG. 3)): attenuated
Gene expression RAGE [1]: prevented
Gene expression RAGE ([1]; listed as AL): 1.0 ± 0.2 AU/18s
AGE accumulation (ELISA for CML-modified protein) ([1]; both wild type and RAGE KO mice, HF diet (FIG. 3)): markedly reduced
collagen deposition / collagen accumulation associated with high fat feeding [2]: unaffected
collagen deposition / collagen accumulation associated with high fat feeding ([2]; listed as alegebrium chloride): reduced
Gene expression Collagen I ([2]; RAGE KO mice): 0.8 ± 0.1 AU/18s
Gene expression Collagen IV ([2]; RAGE KO mice): 0.9 ± 0.1 AU/18s
Gene expression Collagen I ([2]; Wild-type mice): 1.6 ± 0.1 AU/18s
Gene expression Collagen IV ([2]; Wild-type mice): 1.3 ± 0.1 AU/18s
Glucose ([3]; RAGE KO mice): 13.7 ± 0.7 mmol/L
Weight gain (% baseline) ([3]; RAGE KO mice): 44 ± 7 % baseline
Weight gain (% baseline) ([3]; Wild-type mice, 1 mg/kg/day): reduced
Weight gain (% baseline) [3, 5]: 27 ± 2 % baseline
Glucose ([3]; Wild-type mice, 1 mg/kg/day): equivalent changes
Glucose [3, 5]: 15.1 ± 0.5 mmol/L
Gene expression ICAM-1 (%) ([4]; RAGE KO mice): reduced
Gene expression Interleukin-6 (%) ([4]; RAGE KO mice): no significant effect
Gene expression MCP-1 (%) ([4]; RAGE KO mice): reduced
Gene expression P-65 (%) ([4]; RAGE KO mice): 0.3 ± 0.1 AU/18s
Gene expression TNF-alpha (%) ([4]; RAGE KO mice): no significant effect
Gene expression ICAM-1 (%) ([4]; RAGE KO mice, listed as AL): 0.2 ± 0.1 AU/18s
Gene expression Interleukin-6 (%) ([4]; RAGE KO mice, listed as AL): 0.4 ± 0.1 AU/18s
Gene expression MCP-1 (%) ([4]; RAGE KO mice, listed as AL): 0.2 ± 0.1 AU/18s
Gene expression TNF-alpha (%) ([4]; RAGE KO mice, listed as AL): 0.4 ± 0.1 AU/18s
Gene expression ICAM-1 (%) ([4]; Wild-type mice): reduced; also recorded: prevented
Gene expression Interleukin-6 (%) ([4]; Wild-type mice): reduced; also recorded: prevented
Gene expression MCP-1 (%) ([4]; Wild-type mice): reduced
Gene expression TNF-alpha (%) ([4]; Wild-type mice): reduced; also recorded: prevented
Gene expression ICAM-1 (%) ([4]; Wild-type mice, listed as AL): 0.2 ± 0.1 AU/18s
Gene expression Interleukin-6 (%) ([4]; Wild-type mice, listed as AL): 0.2 ± 0.1 AU/18s
Gene expression MCP-1 (%) ([4]; Wild-type mice, listed as AL): 0.4 ± 0.1 AU/18s
Gene expression P-65 (%) ([4]; Wild-type mice, listed as AL): 0.8 ± 0.2 AU/18s
Gene expression TNF-alpha (%) ([4]; Wild-type mice, listed as AL): 0.5 ± 0.2 AU/18s
Gene expression P-65 (%) ([4]; Wild-type mice, listed as alagebirum chloride): prevented
